Source: PMC10042774, “Theoretical and molecular mechanistic investigations of novel (3-(furan-2-yl)pyrazol-4-yl) chalcones against lung carcinoma cell line (A549)” (Naunyn-Schmiedeberg's Archives of Pharmacology, 2022)
≈ marks a conversion by molar mass, not a printed value. Where “and” joins values, the source holds several entries; their conditions need not be identical. Equal entries are not always repeated.

Legend:
[1] = system: lung carcinoma (A549) cell line; assay: MTT assay against lung carcinoma (A549) cell line; format: cell-based, human; details: for IC50 values, Lung carcinoma (A549): 48 h; for IC50: Homo sapiens, A549, 48 h
Source text: (§1) In vitro inhibition activity of the newly synthesized series was investigated on cell viability according to the literature review described by Mohamed et al. (Mohamed et al. [2021b]). In a brief explanation of MTT assay employed herein. In vitro, toxicological MTT Kit has been used to perform an (3-[4,5-dimethylthiazole-2-yl]-2,5-diphenyltetrazolium bromide) to measure the cytotoxicity effect of a novel (3-(Furan-2-yl)pyrazol-4-yl) chalcones against A549 cell line. Lung carcinoma cell line A549 was seeded in microplate where the prepared chalcones solution were added to triplicates well. Incubation of plates was done at 37 °C for 48 h. The fresh […]. Lung cells treated with different range concentration of our series [[…]] were incubated, also untreated cells were used as a reference negative control. One percent antibiotic mixture was used, and after incubation. The positive control utilized here was 5-FU ([…]).

[2] = system: normal lung (Wi38) cell line; assay: MTT assay against normal lung (Wi38) cell line; format: cell-based; details: Homo sapiens, WI-38, 48 h
Source text: [Worded in the source for another cell line; this cell line is reported under the same test.] as §1

[3] = system: BAX; assay: Real-time PCR of BAX expression in A549 cells; format: cell-based, human; details: IC50 conc., 48 h, qPCR, untreated control = 1
Protocol: (§2) Total RNAfrom the compound 7b-, compound 7c-treated A549 cells, and untreated cells were extracted using the Qiagen RNAextraction Kit, Catalog # (74,104). 1 µg of RNAwas reverse transcribed into complementary DNA(cDNA) using High-Capacity cDNA Reverse Transcription Kit (Thermo Fisher scientific, ON, Canada). qPCR was performed using Bio RadSYBR Green qPCR master mix (Bio Rad, California, USA) in a Step One Plus Real-Time PCRSystem (Bio Rad, California, USA). The total reaction volume was 25 µL, 12.5 µL of SYBRgreen master mix, 1 µL of each primer (Bax, Bcl2, P53, CDK4) with 10 pmol/µL (Qiagen, CA, Germany), 2.5 µL of cDNA, and […] of RNAse free water. The thermal cycle of PCR started with an initial denaturation at 95 °C for 10 min, followed by 45 cycles at 94 °C for15 s, 65 °C for 30 s, and 56 °C for 30 s. The relative gene expression was determined using the method of 2^−ΔΔCtafter normalization to the expression of β-actin (Qiagen, CA, Germany) (10 pmol/µL). […]

[4] = system: Bcl2; assay: Real-time PCR of Bcl2 expression in A549 cells; format: cell-based, human; details: IC50 conc., 48 h, qPCR, untreated control = 1
Protocol: as §2

[5] = system: P53; assay: Real-time PCR of P53 expression in A549 cells; format: cell-based, human; details: IC50 conc., 48 h, qPCR, untreated control = 1
Protocol: as §2

[6] = system: CDK4; assay: Real-time PCR of CDK4 expression in A549 cells; format: cell-based, human; details: IC50 conc., 48 h, qPCR, untreated control = 1
Protocol: as §2

[7] = system: human caspase-3; assay: ELISA of caspase-3 in A549 cell lysates; format: cell-based; details: A549 cells, IC50 conc., 48 h, untreated control 53.69
Protocol: (§3) Elisa assay was performed to detect the concentration of human caspase-3, caspase-8, and caspase-9 in A549 cell culture lysates. The instructions were followed up according to the manuscript instructions described in the following kits: DRG® human Caspase-8 ELISA Kit, Catalogue # (EIA-4863), DRG® human Caspase-9 ELISA Kit, Catalogue # (EIA-4860), and Invitrogen human Caspase-3 Elisa Kit, Catalogue # KHO1091, respectively. All reagents, samples, and standards were prepared as described in the above ELISA kits. Briefly, the procedure was described as followed; the microwell strips were washed twice with wash buffer. A total of 100 μl of standard or samples were added to each well and incubated for 2 h at room temperature (18 to 25 °C). The microwell strips were emptied and washed three times with wash buffer. A total of 100 μl of prepared antibodyanti-rabbit-IgG-HRP) were added to each well for 1 h at room temperature. The step of washing was repeated three times and then, 100 μl of prepared TMB (tetramethyl-benzidine) substrate solution was pipetted to all wells and incubated for 10 min at room temperature. […] The absorbance of each microwell was read immediately on a spectrophotometer at a wavelength of 450 nm. The concentrations of the unknown samples and controls were determined from the standard curve which was plotted using curve fitting software.

[8] = system: human caspase-8; assay: ELISA of caspase-8 in A549 cell lysates; format: cell-based; details: A549 cells, IC50 conc., 48 h, untreated control 0.375
Protocol: as §3

[9] = system: human caspase-9; assay: ELISA of caspase-9 in A549 cell lysates; format: cell-based; details: A549 cells, IC50 conc., 48 h, untreated control 1.49
Protocol: as §3

[10] = system: A549 cells; assay: Flow-cytometric analysis of cell cycle (PI); format: cell-based, human; details: IC50 conc., 48 h
Protocol: (§4) 10^6 of A549 cells were cultured in 60-mm Petri dishes for 24 h and then treated with compound 7batIC50concentrationfor 48 h. The untreated A549 cells were used as a negative control. After 48 h of incubation, A549 cells were centrifuged at1000 rpm for 5 min at 4 °C. The cells pellet were washed in phosphate-buffered saline (PBS) and then centrifuged at 1000 rpm for another 5 min. After discarding the supeRNAtant, the cells were collected in a single cell suspension and fixed in 70% ethanol on ice overnight. After the fixation step, cells were washed with 1 ml 1 × PBS. Finally, the cells pellet was incubated with a 200 µl 1 × propidium iodide (PI) mixture at room temperature in the dark for 30 min. Then, cells were subjected to an Epics XL-MCL flow cytometer (Beckman Coulter, Miami, FL) for DNA content analysis. Cells distribution at different phases was analysed by Multicycle software (Phoenix Flow Systems, San Diego, CA). Annexin V-FITC kit catalogue number (#K101-25) was used to detect the percentage of the apoptotic cells. About 10^6 of A549 cells were collected by centrifugation. Then, cells were washed in 500 µl of 1 × PBS. The cells were collected by centrifugation and then resuspended in the annexin V incubation reagent. The annexin V incubation reagent comprising of 10 μL binding buffer (10X) + 10 μL propidium iodide + 1 μL annexin V-FITC + 79 μL deionized water. The cells in 100 μL annexin V incubation reagent was incubated in dark at room temperature for 15 min (Ali et al. [2017]). Finally, the percentage of apoptotic cells was analyzed by flow cytometry using FITC signal detector (usually FL-1) and PI staining by the phycoerythrin emission signal detector (usually FL-2).

[11] = system: A549 cells; assay: Flow-cytometric analysis of apoptosis (Annexin V-FITC/PI); format: cell-based, human; details: IC50 conc., 48 h
Protocol: as §4

SMILES | IC50 values, Lung carcinoma (A549) [1] [µg/mL] | IC50 [1] [µg/mL] | melting point [°C] | IC50 [2] [µg/mL] | other results
O=c1[nH]cc(F)c(=O)[nH]1 [5-FU, reference compound] | 147.29 (≈ 1130 µM) | – | – | – | –
Cc1ccc(-c2cn(-c3ccccc3)nc2/C=C/C(=O)c2c(-c3ccco3)nn(-c3ccc([N+](=O)[O-])cc3)c2C)cc1 [7e, (E)-1-(3-(Furan-2-yl)-5-methyl-1-(4-nitrophenyl)-1H-pyrazol-4-yl)-3-(1-phenyl-4-(p-tolyl)-1H-pyrazol-3-yl)prop-2-en-1-one] | – | 217 (≈ 391 µM) | 248 to 250 | 296 (≈ 532 µM) | –
COc1ccc(-c2cn(-c3ccccc3)nc2/C=C/C(=O)c2c(-c3ccco3)nn(-c3ccc([N+](=O)[O-])cc3)c2C)cc1 [7f, (E)-1-(3-(Furan-2-yl)-5-methyl-1-(4-nitrophenyl)-1H-pyrazol-4-yl)-3-(4-(4-methoxyphenyl)-1-phenyl-1H-pyrazol-3-yl)prop-2-en-1-one] | – | 238 (≈ 416 µM) | 232 to 234 | 296 (≈ 518 µM) | –
Cc1c(C(=O)/C=C/c2nn(-c3ccccc3)cc2-c2ccc(Cl)cc2)c(-c2ccco2)nn1-c1ccc([N+](=O)[O-])cc1 [7g, (E)-3-(4-(4-Chlorophenyl)-1-phenyl-1H-pyrazol-3-yl)-1-(3-(furan-2-yl)-5-methyl-1-(4-nitrophenyl)-1H-pyrazol-4-yl)prop-2-en-1-one] | – | 251 (≈ 437 µM) | 242 to 244 | 379 (≈ 658 µM) | –
Cc1c(C(=O)/C=C/c2nn(-c3ccccc3)cc2-c2ccc([N+](=O)[O-])cc2)c(-c2ccco2)nn1-c1ccc([N+](=O)[O-])cc1 [7h, (E)-1-(3-(Furan-2-yl)-5-methyl-1-(4-nitrophenyl)-1H-pyrazol-4-yl)-3-(4-(4-nitrophenyl)-1-phenyl-1H-pyrazol-3-yl)prop-2-en-1-one] | – | 211 (≈ 360 µM) | 242 | 224 (≈ 382 µM) | –

The next lines start with results.

IC50 values, Lung carcinoma (A549) [1] [µg/mL] | IC50 [1] [µg/mL] | melting point [°C] | SMILES | IC50 [2] [µg/mL] | other results
– | 42.7 (≈ 110 µM) | 138 to 140 | Cc1c(C(=O)/C=C/c2ccco2)c(-c2ccco2)nn1-c1ccc([N+](=O)[O-])cc1 [7a, (E)-3-(Furan-2-yl)-1-(3-(furan-2-yl)-5-methyl-1-(4-nitrophenyl)-1H-pyrazol-4-yl)prop-2-en-1-one] | 68 (≈ 175 µM) | –
20.05 (≈ 49.5 µM) | 20 (≈ 49.3 µM) | 142 to 144 | Cc1c(C(=O)/C=C/c2cccs2)c(-c2ccco2)nn1-c1ccc([N+](=O)[O-])cc1 [7b, (E)-1-(3-(Furan-2-yl)-5-methyl-1-(4-nitrophenyl)-1H-pyrazol-4-yl)-3-(thiophen-2-yl)prop-2-en-1-one] | 108 (≈ 267 µM) | Gene expression (fold change/ β-actin), BAX [3]: 7.93 fold change; Gene expression (fold change/ β-actin), Bcl2 [4]: 0.44 fold change; Gene expression (fold change/ β-actin), P53 [5]: 4.69 fold change; Gene expression (fold change/ β-actin), CDK4 [6]: 0.39 fold change; Enzyme activity ± SD, Caspase 3 [7]: 495.4 pg/mL and 495.4 ± 6.52 pg/mL; Enzyme activity ± SD, Caspase 8 [8]: 1.575 ± 0.05 pg/mL; Enzyme activity ± SD, Caspase 9 [9]: 15.76 ± 0.06 pg/mL; Cell cycle arrest (phase) [10]: cell cycle arrest at G0/G1 and S phases; G2/M % (DNA content) ([10]; untreated control 15.63): 4.21%; S % (DNA content) ([10]; untreated control 37.15): 43.42%; G0/G1% (DNA content) ([10]; untreated control 47.22): 52.37%; Apoptosis % % Late ([11]; untreated control 0.11): 21.24%; Apoptosis % % Early ([11]; untreated control 0.34): 3.69%; Necrosis% ([11]; untreated control 1.26): 17.23%; Apoptosis % %Total ([11]; untreated control 1.71): 42.16%
– | 13.9 (≈ 34.6 µM) | 198 to 200 | Cc1c(C(=O)/C=C/c2ccncc2)c(-c2ccco2)nn1-c1ccc([N+](=O)[O-])cc1 [7c, (E)-1-(3-(Furan-2-yl)-5-methyl-1-(4-nitrophenyl)-1H-pyrazol-4-yl)-3-(pyridin-4-yl)prop-2-en-1-one] | 18.2 (≈ 45.5 µM) | Gene expression (fold change/ β-actin), BAX [3]: 4.78 fold change; Gene expression (fold change/ β-actin), Bcl2 [4]: 0.61 fold change; Gene expression (fold change/ β-actin), P53 [5]: 2.32 fold change; Gene expression (fold change/ β-actin), CDK4 [6]: 0.54 fold change; Enzyme activity ± SD, Caspase 3 [7]: 377.2 pg/mL and 377.2 ± 6.04 pg/mL; Enzyme activity ± SD, Caspase 8 [8]: 1.042 pg/mL and 1.042 ± 0.02 pg/mL; Enzyme activity ± SD, Caspase 9 [9]: 11.2 pg/mL and 11.2 ± 0.52 pg/mL
76.52 (≈ 141 µM) | 76.5 (≈ 141 µM) | 168 to 170 | Cc1c(C(=O)/C=C/c2nn(-c3ccccc3)cc2-c2ccccc2)c(-c2ccco2)nn1-c1ccc([N+](=O)[O-])cc1 [7d, (E)-3-(1,4-Diphenyl-1H-pyrazol-3-yl)-1-(3-(furan-2-yl)-5-methyl-1-(4-nitrophenyl)-1H-pyrazol-4-yl)prop-2-en-1-one] | 261 (≈ 483 µM) | –
